According to PMC11784096, “Synthesis, antibacterial evaluation and in silico studies of novel 2-(benzo[d]thiazol-2-yl)-N-arylacetamides and their derivatives as potential DHFR inhibitors” (BMC Chemistry, 2025):
Values after ≈ are worked out from the molar mass of the structure shown.

Experiments:
P. aeruginosa [1] = experiment: Agar diffusion method, inhibition zone diameter; format: cell-based, Pseudomonas aeruginosa; details: Gram-negative
From the text: (§1) The bacterial growth inhibition activity of most of the newly synthesized compounds was examined against different Gram-positive and Gram-negative strains. The Agar diffusion method was used to assess the antibacterial and antifungal activity. The Gram-negative strains were: E. coli, K. pneumonia, P. aeruginosa and A. baumannii, the Gram-positive strains were: St. aureus, St. mutans and the standard antibiotics were gentamicin, tigecycline and ampicillin.
(§2) The agar-based media plate surface was inoculated by spreading a volume of the microbial inoculum over the entire agar surface.
(§3) Using a sterile cork borer or a tip, a hole with a diameter of 6 to 8 mm was made.
(§4) Using a micropipette, (20 µL) volume of the antimicrobial agent or extract solution at the desired concentration was introduced into the well.
(§5) The inoculated plates were incubated under suitable conditions depending upon the tested microorganism. The antimicrobial agent diffused through the agar medium and inhibited the growth of the microbial strain tested.
(§6) After a suitable incubation period (16 to 48 hours) according to the optimum growth conditions, the resulting inhibition zone diameters (in mm) around the wells were measured to the nearest whole millimeter at the point at which there is a prominent reduction in growth. If growth is insufficient at the recommended times, the plates should be re-incubated and read later.

E. coli [2] = experiment: Minimum inhibition concentration, serial dilution; format: cell-based, Escherichia coli; details: 37 °C; for MIC: Escherichia coli
Method: (§7) For each strain, three to five isolated colonies were selected from the fresh agar plate and transferred into a tube containing 3-4 ml of the sterile broth medium. The bacterial suspension was mixed well and incubated at 35-37 °C for 2-6 hours. […] After that, 1 mg of the tested compound (antimicrobial agent) was dissolved in 1 ml of DMSO and a two-fold serial dilution was done using a broth medium. A fixed volume of the prepared bacterial inoculum was added to each tube and incubated at 37 °C for 16-20 hours. The MIC is defined as the lowest concentration of the antimicrobial agent that inhibits visible growth of the tested isolate as observed with the unaided eye.

St. aureus = experiment: Agar diffusion method, inhibition zone diameter; format: cell-based, Staphylococcus aureus; details: Gram-positive
From the text: as §1, §2, §3, §4, §5, §6

K. pneumonia [3] = experiment: Agar diffusion method, inhibition zone diameter; format: cell-based, Klebsiella pneumonia; details: Gram-negative
From the text: as §1, §2, §3, §4, §5, §6

A. baumannii [4] = experiment: Minimum inhibition concentration, serial dilution; format: cell-based, Acinetobacter baumannii; details: 37 °C; for MIC: Acinetobacter baumannii
Method: as §7

P. aeruginosa [5] = experiment: Minimum inhibition concentration, serial dilution; format: cell-based, Pseudomonas aeruginosa; details: 37 °C; for MIC: Pseudomonas aeruginosa
Method: as §7

K. pneumonia [6] = experiment: Minimum inhibition concentration, serial dilution; format: cell-based, Klebsiella pneumonia; details: 37 °C; for MIC: Klebsiella pneumoniae
Method: as §7

E. coli [7] = experiment: Agar diffusion method, inhibition zone diameter; format: cell-based, Escherichia coli; details: Gram-negative
From the text: as §1, §2, §3, §4, §5, §6

A. baumannii [8] = experiment: Agar diffusion method, inhibition zone diameter; format: cell-based, Acinetobacter baumannii; details: Gram-negative
From the text: as §1, §2, §3, §4, §5, §6

St. mutans = experiment: Agar diffusion method, inhibition zone diameter; format: cell-based; details: Gram-positive
From the text: as §1, §2, §3, §4, §5, §6

Compound	IZD P. aeruginosa (P. aeruginosa [1])	IZD St. aureus (St. aureus) [mm]	IZD K. pneumonia (K. pneumonia [3]) [mm]	IZD E. coli (E. coli [7]) [mm]	IZD A. baumannii (A. baumannii [8]) [mm]	further results
4-(2-(Benzo[d]thiazol-2-yl)acetamido)benzoic acid [2e]	36 ± 1 mm	20 ± 1	36 ± 1	35 ± 1	36 ± 1	MIC E. coli (E. coli [2]): 0.03125 µg/mL; MIC A. baumannii (A. baumannii [4]): 0.125 µg/mL; MIC P. aeruginosa (P. aeruginosa [5]): 0.03125 µg/mL; MIC K. pneumonia (K. pneumonia [6]): 0.03125 µg/mL
O=C(Nc1ccccc1)C(=Cc1ccccc1)c1nc2ccccc2s1 [4a, 2-(Benzo[d]thiazol-2-yl)-N,3-diphenylacrylamide]				11 ± 1		
COc1ccc(C=C(C(=O)Nc2ccccc2)c2nc3ccccc3s2)cc1 [4b, 2-(Benzo[d]thiazol-2-yl)-3-(4-methoxyphenyl)-N-phenylacrylamide]					13 ± 1	
O=C(Nc1ccccc1)C(=Cc1ccc(Cl)cc1)c1nc2ccccc2s1 [4d, 2-(Benzo[d]thiazol-2-yl)-3-(4-chlorophenyl)-N-phenylacrylamide]	no activity		20 ± 1	20 ± 1	15 ± 1	MIC (E. coli [2]): 0.125 µg/mL (≈ 0.32 µM); MIC (A. baumannii [4]): 0.25 µg/mL (≈ 0.64 µM); MIC (K. pneumonia [6]): 0.125 µg/mL (≈ 0.32 µM)
COc1ccc(C=C(C(=O)Nc2ccc(C)cc2)c2nc3ccccc3s2)cc1 [4f, 2-(Benzo[d]thiazol-2-yl)-3-(4-methoxyphenyl)-N-(p-tolyl)acrylamide]	20 ± 1 mm	25 ± 1.1	25 ± 1.1	25 ± 1.1	15 ± 1.1	MIC (E. coli [2]): 0.0625 µg/mL (≈ 0.156 µM); MIC (P. aeruginosa [5]): 0.125 µg/mL (≈ 0.312 µM); IZD St. mutans (St. mutans): 18 ± 1.1 mm; MIC K. pneumonia (K. pneumonia [6]): 0.0625 µg/mL (≈ 0.156 µM); MIC (K. pneumonia [6]): 0.0312 µg/mL (≈ 0.078 µM)
COc1ccc(C=C(C(=O)Nc2ccc(C)cc2)c2nc3ccccc3s2)cc1OC [4g, 2-(Benzo[d]thiazol-2-yl)-3-(3,4-dimethoxyphenyl)-N-(p-tolyl)acrylamide]				18 ± 1		
O=C(Nc1ccc(Cl)cc1)C(=Cc1ccccc1)c1nc2ccccc2s1 [4i, 2-(Benzo[d]thiazol-2-yl)-N-(4-chlorophenyl)-3-phenylacrylamide]	no activity	12 ± 1	23 ± 1	20 ± 1	15 ± 1	MIC (E. coli [2]): 0.125 µg/mL (≈ 0.32 µM); MIC (K. pneumonia [6]): 0.125 µg/mL (≈ 0.32 µM)
O=C(Nc1ccc(Cl)cc1)C(=Cc1ccc(OC(=O)c2ccccc2)cc1)c1nc2ccccc2s1 [4o, 4-(2-(Benzo[d]thiazol-2-yl)-3-((4-chlorophenyl)amino)-3-oxoprop-1-en-1-yl)phenyl-benzoate]			13 ± 1		10 ± 1	
O=C(Nc1ccccc1)C(=Cc1cn(-c2ccccc2)nc1-c1ccccc1)c1nc2ccccc2s1 [6a, 2-(Benzo[d]thiazol-2-yl)-3-(1,3-diphenyl-1H-pyrazol-4-yl)-N-phenylacrylamide]	23 ± 1 mm		20 ± 1	20 ± 1		MIC (E. coli [2]): 0.0625 µg/mL (≈ 0.125 µM); MIC (P. aeruginosa [5]): 0.125 µg/mL (≈ 0.251 µM); MIC (K. pneumonia [6]): 0.0625 µg/mL (≈ 0.125 µM)
Cc1ccc(-c2nn(-c3ccccc3)cc2C=C(C(=O)Nc2ccccc2)c2nc3ccccc3s2)cc1 [6b, 2-(Benzo[d]thiazol-2-yl)-N-phenyl-3-(1-phenyl-3-(p-tolyl)-1H-pyrazol-4-yl)acrylamide]			13 ± 1		10 ± 1	
O=C(Nc1ccccc1)C(=Cc1cn(-c2ccccc2)nc1-c1ccc(Cl)cc1)c1nc2ccccc2s1 [6c, 2-(Benzo[d]thiazol-2-yl)-3-(3-(4-chlorophenyl)-1-phenyl-1H-pyrazol-4-yl)-N-phenyl-acrylamide]					13 ± 1	
Cc1ccc(NC(=O)C(=Cc2cn(-c3ccccc3)nc2-c2ccccc2)c2nc3ccccc3s2)cc1 [6d, 2-(Benzo[d]thiazol-2-yl)-3-(1,3-diphenyl-1H-pyrazol-4-yl)-N-(p-tolyl)acrylamide]			13 ± 1		10 ± 1	
Cc1ccc(NC(=O)C(=Cc2cn(-c3ccccc3)nc2-c2ccc(C)cc2)c2nc3ccccc3s2)cc1 [6e, 2-(Benzo[d]thiazol-2-yl)-3-(1-phenyl-3-(p-tolyl)-1H-pyrazol-4-yl)-N-(p-tolyl)acrylamide]		29 ± 0.5	36 ± 0.8	31 ± 1		
Cc1ccc(-c2nn(-c3ccccc3)cc2C=C(C(=O)Nc2ccc(Cl)cc2)c2nc3ccccc3s2)cc1 [6h, 2-(Benzo[d]thiazol-2-yl)-N-(4-chlorophenyl)-3-(1-phenyl-3-(p-tolyl)-1H-pyrazol-4-yl)acrylamide]					13 ± 1	
O=C(Nc1ccc(Cl)cc1)/C(=C\c1cn(-c2ccccc2)nc1-c1ccc(Cl)cc1)c1nc2ccccc2s1 [6i]		14 ± 1		18 ± 0.5	19 ± 0.5	IZD St. mutans (St. mutans): 15 ± 1 mm
N#Cc1c(-c2ccccc2)c(-c2nc3ccccc3s2)c(=O)n(-c2ccccc2)c1N [11a, 2-Amino-5-(benzo[d]thiazol-2-yl)-6-oxo-1,4-diphenyl-1,6-dihydropyridine-3-carbonitrile]		14 ± 1		18 ± 0.5	19 ± 0.5	IZD St. mutans (St. mutans): 15 ± 1 mm
COc1ccc(-c2c(C#N)c(N)n(-c3ccccc3)c(=O)c2-c2nc3ccccc3s2)cc1 [11b, 2-Amino-5-(benzo[d]thiazol-2-yl)-4-(4-methoxyphenyl)-6-oxo-1-phenyl-1,6-dihydro-pyridine-3-carbonitrile]				19 ± 1	15 ± 1	
COc1ccc(-c2c(C#N)c(N)n(-c3ccc(C)cc3)c(=O)c2-c2nc3ccccc3s2)cc1 [11d, 2-Amino-5-(benzo[d]thiazol-2-yl)-4-(4-methoxyphenyl)-6-oxo-1-(p-tolyl)-1,6-dihydro-pyridine-3-carbonitrile]	13 ± 1 mm		23 ± 1	35 ± 1	10 ± 1	MIC (E. coli [2]): 0.0315 µg/mL (≈ 0.0678 µM); MIC (K. pneumonia [6]): 0.0625 µg/mL (≈ 0.135 µM)
COc1ccc(-c2c(C#N)c(N)n(-c3ccc(Cl)cc3)c(=O)c2-c2nc3ccccc3s2)cc1 [11f, 2-Amino-5-(benzo[d]thiazol-2-yl)-1-(4-chlorophenyl)-4-(4-methoxyphenyl)-6-oxo-1,6-dihydropyridine-3-carbonitrile]	16 ± 1 mm	20 ± 1.1	20 ± 1.1	17 ± 1.1	15 ± 1.1	IZD St. mutans (St. mutans): 20 ± 1.1 mm
CNC(C)C1CCC(N)C(OC2C(N)CC(N)C(OC3OCC(C)(O)C(NC)C3O)C2O)O1 (stereo not drawn) [Gentamicin, reference compound]	32 ± 0.4 mm		29 ± 0.5	27 ± 0.1		MIC (E. coli [2]): 0.0312 µg/mL (≈ 0.0654 µM); MIC (A. baumannii [4]): 0.0312 µg/mL (≈ 0.0654 µM); MIC (P. aeruginosa [5]): 0.0312 µg/mL (≈ 0.0654 µM); MIC (K. pneumonia [6]): 0.0625 µg/mL (≈ 0.131 µM)
CN(C)c1cc(NC(=O)CNC(C)(C)C)c(O)c2c1C[C@H]1C[C@H]3[C@H](N(C)C)C(O)=C(C(N)=O)C(=O)[C@@]3(O)C(O)=C1C2=O [Tigecycline, reference compound]					23 ± 0.4	MIC (A. baumannii [4]): 0.0312 µg/mL (≈ 0.0534 µM)
